# Source: patent US20260166021A1, “POLYMORPHIC FORMS OF A SOLUBLE EPOXIDE HYDROLASE INHIBITOR AND FORMULATIONS THEREOF” (EicOsis, LLC, priority 2022, published 2026)
# Read-outs that look alike come from different tables or passages of the source.
# Test: Solubility screening of Formula (I) in crystallization solvents at RT and 50° C. (TABLE 3)
# Assay type: physicochemical
# Details: for solubility: thermodynamic from solid
# Description: This example covers crystallization of Formula (I) in multiple solvent systems. Solvents were selected to span a range of polarities, functionalities, and classifications according to the International Conference on Harmonization (ICH) with preferences given to class II and class III solvents. […] After each addition of solvent, the vials were shaken and visually inspected for residual solids. If required, heating to 50° C. or heated to reflux (for low boiling point solvents) for approximately two minutes was performed to ensure complete dissolution. If residual solids remained, additional solvent aliquots were added. The solvent addition was discontinued when complete dissolution was achieved. […]
smiles,measurement,setting,value
"CC[C@H](C)C(=O)N1CCC(NC(=O)Nc2ccc(OC(F)(F)F)c(F)c2)CC1 [Formula (I), (S)-1-(3-fluoro-4-(trifluoromethoxy)phenyl)-3-(1-(2-methylbutanoyl)piperidin-4-yl)urea]",Soluble?,"2-MeTHF, RT, Vol 0.2 mL",Yes
same,solubility,"2-butanone (MEK), organic solvent or mixture, MEK, RT, read-out: Nominal Solubility",50.4 mg/mL
same,solubility,"2-butanone (MEK), organic solvent or mixture, MEK, RT, read-out: Solubility Range",≥ 50.4 mg/mL
same,solubility,"2-methyltetrahydrofuran (2-MeTHF), organic solvent or mixture, 2-MeTHF, RT, read-out: Nominal Solubility",25.2 mg/mL
same,solubility,"2-methyltetrahydrofuran (2-MeTHF), organic solvent or mixture, 2-MeTHF, RT, read-out: Solubility Range",25.2 to 50.4 mg/mL
same,Soluble?,"ACN, RT, Vol 0.1 mL",Yes
same,Soluble?,"Acetone, RT, Vol 0.1 mL",Yes
same,Soluble?,"DCM, RT, Vol 0.1 mL",Yes
same,solubility,"DMF, organic solvent or mixture, DMF, RT, read-out: Nominal Solubility",46.1 mg/mL
same,solubility,"DMF, organic solvent or mixture, DMF, RT, read-out: Solubility Range",≥ 46.1 mg/mL
same,Soluble?,"DMF, RT, Vol 0.1 mL",Yes
same,solubility,"DMSO, organic solvent or mixture, DMSO, RT, read-out: Nominal Solubility",47.8 mg/mL
same,solubility,"DMSO, organic solvent or mixture, DMSO, RT, read-out: Solubility Range",≥ 47.8 mg/mL
same,Soluble?,"DMSO, RT, Vol 0.1 mL",Yes
same,Soluble?,"Dioxane, RT, Vol 0.5 mL",Yes
same,Soluble?,"EtOAc, RT, Vol 0.1 mL",Yes
same,Soluble?,"EtOH, RT, Vol 0.1 mL",Yes
same,Soluble?,"IPA, RT, Vol 0.1 mL",Yes
same,Soluble?,"IPAC, RT, Vol 0.2 mL",Yes
same,Soluble?,"MEK, RT, Vol 0.1 mL",Yes
same,Soluble?,"MIBK, RT, Vol 0.1 mL",Yes
same,Soluble?,"MTBE, 50° C., Vol 1.0 mL",Yes
same,Soluble?,"MeOH, RT, Vol 0.1 mL",Yes
same,solubility,"NMP, organic solvent or mixture, NMP, RT, read-out: Nominal Solubility",55.2 mg/mL
same,solubility,"NMP, organic solvent or mixture, NMP, RT, read-out: Solubility Range",≥ 55.2 mg/mL
same,Soluble?,"NMP, RT, Vol 0.1 mL",Yes
same,Soluble?,"THF, RT, Vol 0.1 mL",Yes
same,Soluble?,"Toluene, 50° C., Vol 0.5 mL",Yes
same,Soluble?,"Water, 50° C., Vol 4.0 mL",No
same,solubility,"acetone, organic solvent or mixture, Acetone, RT, read-out: Nominal Solubility",43.7 mg/mL
same,solubility,"acetone, organic solvent or mixture, Acetone, RT, read-out: Solubility Range",≥ 43.7 mg/mL
same,solubility,"acetonitrile (ACN), organic solvent or mixture, ACN, RT, read-out: Nominal Solubility",48.3 mg/mL
same,solubility,"acetonitrile (ACN), organic solvent or mixture, ACN, RT, read-out: Solubility Range",≥ 48.3 mg/mL
same,Soluble?,"c-Hexane, 50° C., Vol 4.0 mL",No
same,solubility,"c-hexane, 50 °C, organic solvent or mixture, c-Hexane, 50° C., read-out: Solubility Range",< 1.17 mg/mL
same,solubility,"cyclohexane (c-hexane), 50 °C, organic solvent or mixture, c-Hexane, 50° C., read-out: Nominal Solubility",< 1.17 mg/mL
same,solubility,"dichloromethane (DCM), organic solvent or mixture, DCM, RT, read-out: Nominal Solubility",46.6 mg/mL
same,solubility,"dichloromethane (DCM), organic solvent or mixture, DCM, RT, read-out: Solubility Range",≥ 46.6 mg/mL
same,solubility,"dioxane, organic solvent or mixture, Dioxane, RT, read-out: Nominal Solubility",9.36 mg/mL
same,solubility,"dioxane, organic solvent or mixture, Dioxane, RT, read-out: Solubility Range",9.36 to 23.4 mg/mL
same,solubility,"ethanol, organic solvent or mixture, EtOH, RT, read-out: Nominal Solubility",41.2 mg/mL
same,solubility,"ethanol, organic solvent or mixture, EtOH, RT, read-out: Solubility Range",≥ 41.2 mg/mL
same,solubility,"ethyl acetate (EtOAc), organic solvent or mixture, EtOAc, RT, read-out: Nominal Solubility",54.3 mg/mL
same,solubility,"ethyl acetate (EtOAc), organic solvent or mixture, EtOAc, RT, read-out: Solubility Range",≥ 54.3 mg/mL
same,solubility,"isopropanol (IPA), organic solvent or mixture, IPA, RT, read-out: Nominal Solubility",56 mg/mL
same,solubility,"isopropanol (IPA), organic solvent or mixture, IPA, RT, read-out: Solubility Range",≥ 56 mg/mL
same,solubility,"isopropyl acetate (IPAc), organic solvent or mixture, IPAC, RT, read-out: Nominal Solubility",23.4 mg/mL
same,solubility,"isopropyl acetate (IPAc), organic solvent or mixture, IPAC, RT, read-out: Solubility Range",23.4 to 46.7 mg/mL
same,solubility,"methanol, organic solvent or mixture, MeOH, RT, read-out: Nominal Solubility",43.2 mg/mL
same,solubility,"methanol, organic solvent or mixture, MeOH, RT, read-out: Solubility Range",≥ 43.2 mg/mL
same,solubility,"methyl isobutyl ketone (MIBK), organic solvent or mixture, MIBK, RT, read-out: Nominal Solubility",48 mg/mL
same,solubility,"methyl isobutyl ketone (MIBK), organic solvent or mixture, MIBK, RT, read-out: Solubility Range",≥ 48 mg/mL
same,solubility,"methyl tert-butyl ether (MTBE), 50 °C, organic solvent or mixture, MTBE, 50° C., read-out: Nominal Solubility",5.68 mg/mL
same,solubility,"methyl tert-butyl ether (MTBE), 50 °C, organic solvent or mixture, MTBE, 50° C., read-out: Solubility Range",5.68 to 11.4 mg/mL
same,Soluble?,"n-BuOH, RT, Vol 0.1 mL",Yes
same,Soluble?,"n-Heptane, 50° C., Vol 4.0 mL",No
same,Soluble?,"n-Propanol, RT, Vol 0.1 mL",Yes
same,solubility,"n-butanol (n-BuOH), organic solvent or mixture, n-BuOH, RT, read-out: Nominal Solubility",42.6 mg/mL
same,solubility,"n-butanol (n-BuOH), organic solvent or mixture, n-BuOH, RT, read-out: Solubility Range",≥ 42.6 mg/mL
same,solubility,"n-heptane, 50 °C, organic solvent or mixture, n-Heptane, 50° C., read-out: Nominal Solubility",< 1.32 mg/mL
same,solubility,"n-heptane, 50 °C, organic solvent or mixture, n-Heptane, 50° C., read-out: Solubility Range",< 1.32 mg/mL
same,solubility,"n-propanol, organic solvent or mixture, n-Propanol, RT, read-out: Nominal Solubility",52.2 mg/mL
same,solubility,"n-propanol, organic solvent or mixture, n-Propanol, RT, read-out: Solubility Range",≥ 52.2 mg/mL
same,solubility,"tetrahydrofuran (THF), organic solvent or mixture, THF, RT, read-out: Nominal Solubility",48 mg/mL
same,solubility,"tetrahydrofuran (THF), organic solvent or mixture, THF, RT, read-out: Solubility Range",≥ 48 mg/mL
same,solubility,"toluene, 50 °C, organic solvent or mixture, Toluene, 50° C., read-out: Nominal Solubility",10 mg/mL
same,solubility,"toluene, 50 °C, organic solvent or mixture, Toluene, 50° C., read-out: Solubility Range",10 to 25 mg/mL
same,solubility,"water, 50 °C, water, Water, 50° C., read-out: Nominal Solubility",< 1.36 mg/mL
same,solubility,"water, 50 °C, water, Water, 50° C., read-out: Solubility Range",< 1.36 mg/mL
